# Assay results taken from article PMC2990756, “Quantitative High-Throughput Screening Identifies 8-Hydroxyquinolines as Cell-Active Histone Demethylase Inhibitors” (PLoS ONE, 2010).
# Columns and labels:
# [1] = molecular target: T1, JMJD2E (KDM4E) (Homo sapiens, UniProt B2RXH2); test: qHTS fluorescence FDH-coupled JMJD2E demethylase assay; format: biochemical; details: Table S1; unit not in table, from Figure 2; read-out: qHTS Data: jmjd2e IC50
# T1 construct: The catalytic domain of human JMJD2E (residues 1–337); His6 (N); made in house; host or cells: E. coli
# T1 sequence (B2RXH2 1-337): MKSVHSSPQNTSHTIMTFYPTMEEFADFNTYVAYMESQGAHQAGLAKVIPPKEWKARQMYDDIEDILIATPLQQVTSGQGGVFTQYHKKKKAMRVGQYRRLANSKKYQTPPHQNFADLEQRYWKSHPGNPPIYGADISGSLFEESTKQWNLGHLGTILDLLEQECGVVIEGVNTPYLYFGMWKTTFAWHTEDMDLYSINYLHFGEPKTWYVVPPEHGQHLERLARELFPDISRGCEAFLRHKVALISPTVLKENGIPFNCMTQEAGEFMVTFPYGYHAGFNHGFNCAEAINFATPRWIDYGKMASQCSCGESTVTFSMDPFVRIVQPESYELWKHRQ
# [2] = molecular target: T2, formaldehyde dehydrogenase (FDH) (Pseudomonas putida, UniProt P46154); test: FDH coupling enzyme counterscreen; format: biochemical; details: Table S1, FDH counterscreen; for IC50: unit not in table, from Figure 2, read-out: qHTS Data: jmjd2e fdh IC50
# T2 construct: purchased Sigma-Aldrich
# T2 sequence (P46154 whole entry): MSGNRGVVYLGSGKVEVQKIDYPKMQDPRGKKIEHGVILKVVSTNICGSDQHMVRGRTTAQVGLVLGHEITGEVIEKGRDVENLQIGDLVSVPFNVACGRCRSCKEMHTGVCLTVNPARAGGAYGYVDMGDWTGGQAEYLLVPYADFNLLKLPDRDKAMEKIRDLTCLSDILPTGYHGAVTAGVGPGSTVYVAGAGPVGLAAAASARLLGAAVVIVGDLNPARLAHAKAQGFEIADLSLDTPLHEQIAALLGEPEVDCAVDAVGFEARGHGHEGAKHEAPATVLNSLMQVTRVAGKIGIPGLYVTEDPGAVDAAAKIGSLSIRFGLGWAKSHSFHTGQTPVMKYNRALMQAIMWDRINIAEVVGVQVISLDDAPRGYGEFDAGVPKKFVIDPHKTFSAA
# Excerpt: Dimethylsulfoxide certified ACS grade (DMSO) was from Fisher, Inc. HEPES buffer was obtained from Gibco. […] Black solid-bottom 1,536-well assay plates were from Greiner Bio-One (Monroe, NC).
# [3] = molecular target: T3, JMJD2E (Homo sapiens, UniProt B2RXH2); test: MALDI-TOF MS demethylation assay, JMJD2E; details: Table S1; for MALDI-TOF Data: Span: span of the fitted curve; for MALDI-TOF Data: Span / IC50: 2 µM JMJD2E; for IC50: read-out: MALDI-TOF Data: IC50, unit not in table, ~ values are poorly fitted
# T3 sequence (B2RXH2 1-337): T1 sequence (B2RXH2 1-337)
# Description: Initially, JMJD2, Fe(II), ascorbate and inhibitors were pre-incubated for 15 min prior to the addition of peptide and 2OG. The reaction was incubated for 30 min before 1∶1 quenching with methanol followed by addition of four volumes of 20 mM triammonium citrate. […] The diluted assay mixture (1 µL) from JMJD2 and PHD2 assays were mixed with 1 µL of α-cyano-4-hydroxycinnamic acid and 1 µL of FIH assay mixture was mixed with 1 µL of sinapinic acid matrix, and assessed by matrix-assisted laser desorption/ionization-time of flight (MALDI-TOF).
# [4] = molecular target: T3, JMJD2E; test: JMJD2E FDH-coupled assay under low and high iron conditions (iron chelation profile); format: biochemical; set-up: The catalytic domain of human JMJD2E (residues 1–337); His6 (N); made in house; host or cells: E. coli; details: Table S1; for IC50: unit not in table, from Figure 2
# Description: The prioritized compounds were also evaluated in the screening assay using two different ferrous ion concentrations (termed high iron and low iron, respectively), in order to assess their propensity for iron chelation.
# The ratio of IC50 values under high iron to low iron was calculated for each compound.
# [5] = high iron, head says 20 µM FAS, read-out: qHTS Data: jmjd2e fas20um IC50
# [6] = low iron 2.5 µM FAS, read-out: qHTS Data: jmjd2e fas2.5um IC50
SMILES,IC50 [1] [µM],qHTS Data: jmjd2e fdh CurveClass [2],MALDI-TOF Data: Span [3],"IC50 [4, 5] [µM]","IC50 [4, 6] [µM]",IC50 [3] [µM],qHTS Data: jmjd2e fas2.5um Curve comment ([4]; low iron 2.5 µM FAS),MALDI-TOF Data: Comments [3],qHTS Data: jmjd2e fas20um CurveClass ([4]; high iron),IC50 [2] [µM]
CCCCc1ccc(C(=O)O)nc1 [compound 11111188],3.98,Inactive,~ 5848,1.58,3.55,,,,,
COc1ccc(/C=C/C(=O)NC(=S)NNC(=O)c2cnccn2)cc1 [compound 26725781],7.94,Inactive,94.6,8.91,10,3.5,,,,
Nc1ccc2nc3c(=O)n(CCc4ccccc4)c(=O)[nH]c3nc2c1 [compound 26726384],1.78,Inactive,51.81,14.1,7.08,141,Poor quality curve,,,
C(=N\Nc1nc(-c2ccccn2)nc2ccccc12)/c1ccccc1 [compound 26666061],8.91,Inactive,,10,22.4,,,solubility problems,,
O=c1nc(N/N=C/c2ccccn2)cn[nH]1 [compound 24822918],10,Inconclusive,97.61,15.8,7.08,~7.05,,,,
CN1CCN(Cc2cc(COCc3ccccc3)c3cccnc3c2O)CC1 [compound 4248346],8.91,Inactive,96.1,8.91,7.08,17.2,,,,
CCOc1c(Cl)cc(CNc2ccc(N3CCCC3)cc2)cc1OC [compound 24795526],8.91,Inactive,~ 11904,19.9,3.98,,,,Poor quality curve,
CN(C)C1C(=O)C(C(N)=O)=C(O)[C@@]2(O)C(=O)C3=C(O)c4c(O)cccc4[C@@](C)(O)C3[C@H](O)C12 (some centres unmarked) [compound 50105558],2,Poor quality curve,94.16,8.91,14.1,54.8,,,,3.55
Br.Oc1ccc(C2CNCCc3c2cc(O)c(O)c3Cl)cc1 (centres unmarked) [compound 50106351],25.1,Inactive,93.35,7.94,6.31,8.4,,,,
O=c1c(O)c(-c2cc(O)c(O)c(O)c2)oc2cc(O)cc(O)c12 [compound 11111488],,Inactive,95.03,,,,,,Poor quality curve,
COc1cccc(/C=N/NC(=O)CNC(=O)COc2cccc(C)c2)c1O [compound 26660958],2.82,Inactive,89.52,,4.47,10.2,,,Inconclusive,
C[C@@](Cc1ccc(O)c(O)c1)(NN)C(=O)O [compound 11113507],3.55,Inactive,95.69,14.1,3.55,5.6,,,,
c1cnc2c(c1)ccc1cccnc12 [compound 11533040],0.25,Inactive,93.01,3.98,10,~26.5,,,,
C=CCn1c(SCC(=O)c2ccc(O)c(O)c2)nnc1-c1cccnc1 [compound 26671532],3.55,Poor quality curve,91.73,1.26,7.94,11.8,,,,14.1
Oc1ccc(NCc2ccccc2OCc2ccccc2F)cc1 [compound 17385881],5.01,Poor quality curve,3.087,8.91,8.91,,,,,14.1
COc1cccc(/C=N/NC(=O)CNC(=O)CCc2ccccc2)c1O [compound 26660959],3.98,Inconclusive,88.08,12.6,7.08,8.6,,,,39.8
CC1(C)CCC2=C(O1)c1ccccc1C(=O)C2=O [compound 50106535],3.55,,91.75,,,28.6,,,,

SMILES,IC50 [1] [µM],qHTS Data: jmjd2e fdh CurveClass [2],MALDI-TOF Data: Span [3],"IC50 [4, 5] [µM]","IC50 [4, 6] [µM]",IC50 [3] [µM],qHTS Data: jmjd2e fas2.5um Curve comment ([4]; low iron 2.5 µM FAS),MALDI-TOF Data: Comments [3],qHTS Data: jmjd2e fas20um CurveClass ([4]; high iron),IC50 [2] [µM]
CCOc1cc(CNc2ccc(N3CCCCC3)cc2)cc(Br)c1OCC(=O)NC(C)(C)C [compound 22412645],3.16,Inactive,~ 104.5,3.16,39.8,,Inconclusive,,,
CCc1ccc2c(O)c3c(cc2c1C(=O)OC)C(=O)c1c(O)ccc(O)c1C3=O [compound 26749155],2.82,Poor quality curve,,11.2,3.98,,,,,3.16
COc1ccc(Cn2c(O)c(/C=N/NC(=O)c3ccncc3)c(=O)[nH]c2=O)cc1 [compound 26667135],7.94,Poor quality curve,,8.91,8.91,,,,,14.1
O=C(CSc1ncn[nH]1)c1cccc([N+](=O)[O-])c1 [compound 17510781],7.94,,,14.1,10,,,,,0.89
CN(C)S(=O)(=O)c1cccc(-n2sc3ccccc3c2=O)c1 [compound 24834029],3.55,Poor quality curve,,1.26,4.47,,,,,7.94
COC(=O)c1ccc(=O)c2nc3/c(=C/O)c(O)cc(=O)c3[nH]c12 [compound 26732584],8.91,Inactive,,,2.24,,,,Inconclusive,
CC1=CC(=O)c2c(O)cccc2C1=O [compound 26747815],8.91,Poor quality curve,,12.6,2.24,,,,,17.8
Cc1ccc(O)c(N=NC2=C(O)CC(C)(C)CC2=O)c1 [compound 22414549],0.56,Inactive,,,5.62,,,,Inactive,
O=Cc1ccc(O)c(O)c1 [compound 8139931],4.47,Inactive,,,3.55,,,,Inactive,
O=C(OC1Cc2c(O)cc(O)cc2OC1c1cc(O)c(O)c(O)c1)c1cc(O)c(O)c(O)c1 (centres unmarked) [compound 26749738],2.51,Poor quality curve,,7.08,1.41,,,,,14.1
O=c1cnnc(N/N=C/c2ccccn2)[nH]1 [compound 26726276],3.55,Inactive,,,6.31,,,,Inactive,
O=C(CC1Sc2ncnn2C1=O)Nc1ccc(Br)cc1 (centres unmarked) [compound 7966079],2.24,,,1,2,,,,,0.28
Cc1ccc(N2C(=O)CC(Sc3ncn[nH]3)C2=O)cc1C (centres unmarked) [compound 14726720],1.26,,,,1.41,,,,Inactive,0.22
O=C1c2ccc(O)c(O)c2C(=O)c2c(O)ccc(O)c21 [compound 26749241],3.55,Inactive,,15.8,2.51,,,,,
O=C(O)c1cc(O)c(O)c(O)c1 [compound 26747307],0.35,Poor quality curve,,17.8,0.13,,,,,31.6
O=C(NC(=S)NNC(=O)c1ccccc1O)c1ccco1 [compound 17504924],7.08,Poor quality curve,,,3.55,,,,Inactive,2.82
N#C/C(=C\c1cc(O)c(O)c(O)c1)C(N)=O [compound 26725225],1,Poor quality curve,,8.91,2.24,,,,,39.8
